The record followed here is publication PMC7767178 (International Journal of Molecular Sciences, 2020).

The subject of data set [1] is A. veronii ACCC61732 biofilms. Kind of data set: Mouse model of catheter-associated biofilm infection, bacteria in catheter. The data set is classed as in vivo, ICR mice. The note with it: 5 μmol/kg peptide or CIP 24 h after catheter implantation, catheters collected after seven days, six mice per group. The protocol: Briefly, the catheter was cut into 1 cm segments; each piece was sterilized with 70% ethanol and then dried by air. Bacterial biofilms were developed on the catheter by placing individual segments into tubes containing 1.0 mL of a cell suspension (1 × 10^8 CFU/mL) in TSB. After incubation for 24 h at 37 °C, colonized catheters were recovered aseptically and rinsed with PBS to remove unbound bacteria. ICR female mice (20 ± 5 g) were anesthetized with isoflurane; the flanks were shaved and the skin was cleansed with alcohol. […] The incision was then covered with intact skin and closed with surgical suture line and the skin was disinfected. […] The untreated mice were used as the negative control and the mice with sterile catheter were used as the blank control. The mice were anesthetized and sacrificed after seven days. The catheters in the back of the mice were collected and thoroughly shaken in sterile PBS.

Data set [2] relates to A. veronii ACCC61732. Kind of data set: ATP release, BacTiter-Glo. The data set is classed as cell-based. As to conditions: 8×, 16× and 32× MIC, 60 min, 37 °C, luminescence, n = 3. The protocol: The assay was performed for three biological replicates at 37 °C, with luminescence recorded using a Tecan Infinite M1000 Pro plate reader. The fold reduction of ATP was calculated as: Fold reduction ATP = 1 − (Ltreat − Lmedia/Lcontrol − Lmedia), where Ltreat is the luminescence of treated cells, Lmedia is the luminescence of MHB without cells, and Lcontrol is the luminescence of untreated cells. Resultant graphs show mean (n = 3) and SEM for each data point, prepared in Prism 7 [46].

The subject of data set [3] is IL-10. Kind of data set: Serum cytokine, ELISA, peritonitis model. The data set is classed as in vivo. The note with it: 24 h after treatment, range over mice. As to the method:
(§1) Sera and organs (livers, kidneys, spleens, and lungs) were collected from the mice at 24 h post-treatment. The organs were homogenized in sterile PBS to evaluate bacterial translocation by colony counting. The levels of cytokines (TNF-α, IL-1β, IL-6, and IL-10) in sera were detected using the ELISA kits.
A general note: ELISA stands for enzyme-linked immunosorbent assay.

Data set [4] relates to A. veronii ACCC61732 mature biofilms. Briefly: Eradication of mature biofilms, crystal violet. The data set is classed as cell-based. The note with it: 16× MIC, 24 h on 24 h biofilm. As to the method: A. veronii ACCC61732 cells (1 × 10^8 CFU/mL) were cultured in TSB medium in the 96-well plates at 37 °C for 24 h.
The test system of data set [5] is A. veronii ACCC61732. Kind of data set: Organ injury in peritonitis model, histology. The data set is classed as in vivo, mice. The note with it: peptides 5 μmol/kg, CIP 1 μmol/kg. As to the method: Livers, kidneys, spleens, and lungs were removed from mice at 24 h and five days post treatment to evaluate the organ injury. After washing with PBS, the organs were fixed in 4% paraform-aldehyde for 24 h at 4 °C, dehydrated by a graded series of ethanol (75‒95%), and infiltrated with xylene. The organs were then embedded in paraffin wax, sectioned, and stained with hematoxylin and eosin. Finally, the tissue samples were fixed and observed by the light microscope. The CIP-treated mice served as the positive control and the PBS group served as the negative control.

In data set [6] the test system is A. veronii ACCC61732. Briefly: Mouse peritonitis model, bacterial translocation to organs. The data set is classed as in vivo, ICR mice. As to conditions: 24 h post-treatment, colony counting. The protocol: as §1
Data set [7] deals with Salmonella typhimurium ATCC14028. The data set is classed as cell-based.
Data set [8] has as its system trypsin. As to conditions: pH 8.
For data set [9], the system named is A. veronii ACCC61732 genomic DNA. Briefly: CD spectra of genomic DNA with peptides. The data set is classed as binding. The note with it: mass ratios 2.5 and 10.0, 10 min, room temperature. The protocol:
CD spectra were performed to examine the secondary structure of genomic DNA from A. veronii ACCC61732 after incubation with peptides. […] The mixtures were loaded into a cuvette of 1.0-mm path length and scanned from 190 to 330 nm at 25 °C using a Pistar π-180 CD spectrometer (Applied Photophysics Ltd., Surry, UK).

The test system of data set [10] is A. veronii CL0901. As to the method:
(§2) Briefly, the tested strains including Gram-negative bacteria, Gram-positive bacteria, and fungi were cultured to the logarithmic growth phase, diluted to 10^5 CFU/mL, and added into 96-well plates (90 μL/well). Two-fold serial dilutions of peptides or antibiotics dissolved in PBS were added to each well (10 μL/well). […] All experiments were repeated three times.

The subject of data set [11] is S. aureus ATCC546. As to the method:
as §2

In data set [12] the test system is S. hyicus NCTC10350. The protocol:
as §2

Data set [13] deals with Pseudomonas aeruginosa CICC21630. As to the method: as §2
The test system of data set [14] is S. aureus ATCC25923. The protocol:
as §2

Data set [15] relates to Aeromonas veronii ACCC61732. As to the method:
as §2

Data set [16] has as its system Salmonella. As to conditions: range over the strains of Table 2.
Data set [17] relates to mouse erythrocytes. Briefly: Hemolysis. As to conditions: 256 μg/mL; 8% mouse erythrocyte suspension, 37 °C, 1 h, absorbance 540 nm. The data set is classed as cell-based. As to the method:
To determine the hemolysis of peptides, eyeball blood was collected from 6-week-old SPF ICR mice. The blood was centrifuged at 4 °C for 10 min (1500 rpm), washed three times with 0.9% physiological saline, and diluted to 8% suspension. […] Red blood cell suspensions and peptide solutions (100 μL) were mixed in 96-well plates, centrifuged at 4 °C for 5 min (1500 rpm), and incubated at 37 °C for 1 h. The supernatant was added into a 96-well plate and the UV absorbance was measured at 540 nm using a microplate reader. Physiological saline and 0.1% Triton X-100 were used as 0% and 100% hemolytic controls, respectively. The hemolytic ratio was calculated as follows: Hemolysis (%) = [(Abspeptide − Abssaline)/(Abs0.1%Triton X-100 − Abssaline)] × 100% [38].

The mark [18] stands for this setting: Salmonella typhimurium ATCC14028, broth dilution, 37 °C, 16–18 h, three experiments.
The mark [19] stands for this setting: A. veronii CL0901, broth dilution, 37 °C, 16–18 h, three experiments.
The mark [20] stands for this setting: S. aureus ATCC546, broth dilution, 37 °C, 16–18 h, three experiments.
[21] abbreviates: S. aureus ATCC25923, broth dilution, 37 °C, 16–18 h, three experiments.
Where [22] appears, read: Aeromonas veronii ACCC61732 (MDR), broth dilution, 37 °C, 16–18 h, three experiments.

Where two headings read alike, the source gives them in different places. Positions of bridges follow the written chain, without caps; N, C: chain ends. Residues, ends and D or L forms follow the SMILES beside them.

For orientation: MIC means the lowest concentration that inhibits growth of the organism.

In the case of `O=C(O)c1cn(C2CC2)c2cc(N3CCNCC3)c(F)cc2c1=O` [CIP, ciprofloxacin, reference compound], the “decrease of bacterial cells in the catheter” value in data set [1] is listed as 28.72%. The ATP release in [2] was 7.06–47.60%. The “serum level of IL-10” value in data set [3] (1 μmol/kg) fell in the range of 10.1 to 16.41 pg/mL. Moreover, the “inhibition of mature biofilms” value in data set [4] came to 89.87%. Besides, the “effect on injury of liver, spleen, kidney and lung” value in data set [5] is “weak therapeutic effect”. In data set [6] (1 μmol/kg), the “reduction of bacteria in kidneys” value is on record as 60.14%, the “reduction of bacteria in livers” value is reported as 54.55%, the “reduction of bacteria in lung” value is given as 62.27% and the “reduction of bacteria in spleens” value is 53.62%.

With `CC(C)[C@@H]1NC(=O)CNC(=O)[C@H](CC(N)=O)NC(=O)[C@H](CCCNC(=N)N)NC(=O)[C@H](Cc2ccc(O)cc2)NC(=O)[C@H](C(C)C)NC(=O)[C@@H](NC(=O)[C@@H](NC(=O)[C@H](CC(N)=O)NC(=O)[C@H](Cc2c[nH]c3ccccc23)NC(=O)[C@H](C)NC(=O)[C@H](Cc2ccccc2)NC(=O)[C@H](CCCN)N=C(N(C)C)N(C)C)C(C)C)CSSC[C@@H](C(=O)N[C@@H](Cc2c[nH]cn2)C(=O)N[C@@H](CCCNC(=N)N)C(=O)N[C@@H](CCCNC(=N)N)C(=O)N[C@@H](C)C(=O)N[C@@H](CC(N)=O)C(N)=O)NC(=O)[C@H](C(C)C)NC(=O)[C@H](CCCNC(=N)N)NC1=O` (stereo in doubt) [Guo-N6NH2], the MIC in [7] (setting [18]) is 4 µg/mL; in [10] it was 6.08 µM; in data set [10] (setting [19]), 16 µg/mL; in [11] (ATCC546), 6.08 µM; in data set [11] (setting [20]), 16 µg/mL; in data set [12] (NCTC10350), 24.32 µM. Further, the MIC is 64 µg/mL in [12] (S. hyicus NCTC10350, broth dilution, 37 °C, 16–18 h, three experiments); >24.3 µM in data set [13] (CICC21630); 12.16 µM in data set [14] (ATCC25923); 32 µg/mL in data set [14] (setting [21]); 3.04 µM in data set [15]; 8 µg/mL in data set [15] (setting [22]). The “MIC after trypsin treatment” value in data set [8] is “lost their activity”. The “effect on CD spectrum of genomic DNA” value in data set [9] was “do not affect the double helix of genomic DNA”. In addition, in data set [2], the ATP release is listed as 66.23–92.09%. In data set [15] (Table S6 control: absence of temperature, acid and alkali, salt and enzyme condition), the “MIC, control” value worked out at 8 µg/mL.

In the case of `CC(C)[C@@H]1NC(=O)CNC(=O)[C@H](CC(N)=O)NC(=O)[C@H](CCCNC(=N)N)NC(=O)[C@H](Cc2ccc(O)cc2)NC(=O)[C@H](C(C)C)NC(=O)[C@@H](NC(=O)[C@@H](NC(=O)[C@H](CC(N)=O)NC(=O)[C@H](Cc2c[nH]c3ccccc23)NC(=O)[C@H](C)NC(=O)[C@H](Cc2ccccc2)NC(=O)CN)C(C)C)CSSC[C@@H](C(=O)N[C@@H](Cc2c[nH]cn2)C(=O)N[C@@H](CCCNC(=N)N)C(=O)N2CCC[C@H]2C(=O)N[C@@H](C)C(=O)N[C@@H](CC(N)=O)C(N)=O)NC(=O)[C@H](C(C)C)NC(=O)[C@H](CCCNC(=N)N)NC1=O` [N6PNH2] (H-GFAWNVCVYRNGVRVCHRPAN-NH2; disulfide 7-16 (inferred)), the “MIC values against Salmonella” value in data set [16] is 0.83 to 13.25 µM. In addition, the MIC in [7] (ATCC14028) was 6.62 µM; in data set [7] (setting [18]) it was 16 µg/mL; in [10], 26.49 µM; in [10] (setting [19]), 64 µg/mL; in data set [11] (setting [20]), >64 µg/mL; in data set [12] (NCTC10350), >52.98 µM. Also, the MIC is >64 µg/mL in [13] (Pseudomonas aeruginosa CICC21630, broth dilution, 37 °C, 16–18 h, three experiments); >64 µg/mL in [14] (setting [21]); 6.62 µM in [15]; 16 µg/mL in [15] (setting [22]). The compound further yielded a hemolysis in [17] of 0.56%. The “decrease of bacterial cells in the catheter” value in data set [1] stood at 54.09%. Moreover, the “MIC after trypsin treatment” value in data set [8] is recorded as “lost their activity”. In data set [9], the “effect on CD spectrum of genomic DNA” value is “do not affect the double helix of genomic DNA”. For the same compound, in [2], the ATP release is 77.39–90.34%. Further, the “serum level of IL-10” value in data set [3] (5 μmol/kg) is “no discrepancy of IL-10 levels”. Also, the “inhibition of mature biofilms” value in data set [4] turned out to be 97.16%. In addition, in data set [5], the “effect on injury of liver, spleen, kidney and lung” value is “worst therapeutic effect”. Further, the “reduction of bacteria in kidneys” value in data set [6] (5 μmol/kg) worked out at 18.36%. Besides, the “reduction of bacteria in livers” value in [6] (5 μmol/kg) is given as 31.54%. For the same compound, the “reduction of bacteria in lungs” value in [6] (5 μmol/kg) stood at 15.92%. Besides, the “reduction of bacteria in spleens” value in data set [6] (5 μmol/kg) was found to be 28.47%.
